Data published in US20210379066A1, “COMBINATIONS OF POSITIVE ALLOSTERIC MODULATORS AND NICOTINIC ACETYLCHOLINE RECEPTOR AGONISTS FOR TREATING OCULAR CONDITIONS” (Oyster Point Pharma, Inc., priority 2018, published 2021).

Tests used:
Type in all cases: cell-based
Settings in all cases: versus ACh response
[1] = target: T1, human nAChR alpha3alpha5beta4 (Homo sapiens, UniProt P30532+P30926+P32297); assay: Agonist activity, two-electrode voltage clamp in Xenopus oocytes (Examples 2 and 5)
T1 construct: expressed in transfected cells; host or cells: Xenopus laevis oocytes (cDNA injection)
Procedure: (§1) All experiments were carried out at human nAChRs expressed in Xenopus oocytes using the method of cDNA expression. Xenopus oocytes were prepared and injected using standard procedures.
(§2) Briefly, ovaries were harvested from Xenopus Laevis females that have been deeply anesthetized by cooling at 4° C. and Tricaine methanesulfonate (MS-222 at a concentration of 150 mg/L) in sodium bicarbonate (300 mg/L). Once anesthetized the animal was decapitated and pithed following the rules of animal rights from the Geneva canton. A small piece of ovary was isolated for immediate preparation while the remaining part was placed at 4° C. in a sterile Barth solution containing in mM NaCl 88, KCl 1, NaHCO32.4, HEPES 10, MgSO4.7H2O 0.82, Ca(NO3)2.4H2O 0.33, CaCl2.6H2O 0.41, at pH 7.4, and supplemented with 20 μg/ml of kanamycin, 100 unit/ml penicillin. All recordings were performed at 18° C. and cells superfused with OR2 medium containing in mM: NaCl 88, KCl 2.5, HEPES 5, CaCl2.2H2O 1.8, MgCl2.6H2O 1, pH 7.4.
(§3) Currents evoked by ACh or other agonists were recorded using an automated process equipped with standard two-electrode voltage-clamp configuration (TEVC). Data were captured and analyzed using a HiQScreen proprietary data acquisition and analysis software running under Matlab (Mathworks Inc.).
(§4) See Example 1. […] The test concentration of acetylcholine chloride was 1280 micromolar.
(§5) Injections of cDNAs encoding for the human alpha3beta4, alpha3alpha5beta4, alpha4beta2, and alpha7 were performed in at least 95 oocytes were performed using a proprietary automated injection and receptor expression examined at least two days later. Oocytes were poked with two electrodes and their membrane potential maintained, unless indicated, at −80 mV throughout the experiment.
(§6) A protocol to determine agonistic activity in the oocytes expressing the nAChRs was developed. The cells were exposed to a series of increasing concentrations of a compound agonist for 10 seconds each at two minute intervals. The current evoked from exposure to the agonist at each concentration was recorded. For oocytes expressing alpha7 nAChRs, exposure to the agonist was reduced to 5 seconds. This process was repeated for each agonist tested against each type of nAChR expressing cell.
(§7) To evaluate the agonistic properties of compound 1 hemi-galactarate dihydrate a protocol of brief exposures to a series of growing concentrations of compound 1 hemi-galactarate dihydrate was used.
(§8) Agonist Preparation: See Example 1. […] The test concentration of acetylcholine chloride was 1280 micromolar.
as §5, with “Experimental Procedures: Injections” for “Injections”, “alpha4beta2, alpha4alpha6beta2,” for “alpha4beta2,”, “oocytes” for “oocytes were performed”, “injection device. Cellular” for “injection and”, “expression was” for “expression”
as §6, with “developed. Oocytes expressing a nAChR subtype were exposed to a brief test pulse of acetylcholine (1280 micromolar) while the holding current and response was evaluated. Cells displaying robust currents were washed for 90 seconds.” for “developed.”, “were then” for “were”, “nAChR” for “compound”, “intervals. The nAChR agonist test concentrations were 0.1, 0.3, 1, 3, 10, 30, 100, 300 (micromolar).” for “intervals.”

human nAChR alpha3beta4 = target: T2, human nAChR alpha3beta4 (Homo sapiens, UniProt P30926+P32297); assay: as above
T2 construct: expressed in transfected cells; host or cells: Xenopus laevis oocytes (cDNA injection)
Procedure: as §1, §2, §3, §4, §5, §6, §7, §8
as §5, with “Experimental Procedures: Injections” for “Injections”, “alpha4beta2, alpha4alpha6beta2,” for “alpha4beta2,”, “oocytes” for “oocytes were performed”, “injection device. Cellular” for “injection and”, “expression was” for “expression”
as §6, with “developed. Oocytes expressing a nAChR subtype were exposed to a brief test pulse of acetylcholine (1280 micromolar) while the holding current and response was evaluated. Cells displaying robust currents were washed for 90 seconds.” for “developed.”, “were then” for “were”, “nAChR” for “compound”, “intervals. The nAChR agonist test concentrations were 0.1, 0.3, 1, 3, 10, 30, 100, 300 (micromolar).” for “intervals.”

human nAChR alpha4beta2 = target: T3, human nAChR alpha4beta2 (Homo sapiens, UniProt P17787+P43681); assay: as above
T3 construct: expressed in transfected cells; host or cells: Xenopus laevis oocytes (cDNA injection)
Procedure: as §1, §2, §3, §4, §5, §6, §7, §8
as §5, with “Experimental Procedures: Injections” for “Injections”, “alpha4beta2, alpha4alpha6beta2,” for “alpha4beta2,”, “oocytes” for “oocytes were performed”, “injection device. Cellular” for “injection and”, “expression was” for “expression”
as §6, with “developed. Oocytes expressing a nAChR subtype were exposed to a brief test pulse of acetylcholine (1280 micromolar) while the holding current and response was evaluated. Cells displaying robust currents were washed for 90 seconds.” for “developed.”, “were then” for “were”, “nAChR” for “compound”, “intervals. The nAChR agonist test concentrations were 0.1, 0.3, 1, 3, 10, 30, 100, 300 (micromolar).” for “intervals.”

human nAChR alpha7 = target: T4, human nAChR alpha7 (Homo sapiens, UniProt P36544); assay: as above
T4 construct: expressed in transfected cells; host or cells: Xenopus laevis oocytes (cDNA injection)
Procedure: as §1, §2, §3, §4, §5, §6, §7, §8
as §5, with “Experimental Procedures: Injections” for “Injections”, “alpha4beta2, alpha4alpha6beta2,” for “alpha4beta2,”, “oocytes” for “oocytes were performed”, “injection device. Cellular” for “injection and”, “expression was” for “expression”
as §6, with “developed. Oocytes expressing a nAChR subtype were exposed to a brief test pulse of acetylcholine (1280 micromolar) while the holding current and response was evaluated. Cells displaying robust currents were washed for 90 seconds.” for “developed.”, “were then” for “were”, “nAChR” for “compound”, “intervals. The nAChR agonist test concentrations were 0.1, 0.3, 1, 3, 10, 30, 100, 300 (micromolar).” for “intervals.”

[2] = target: T5, human nAChR alpha4alpha6beta2 (Homo sapiens, UniProt P17787+P43681+Q15825); assay: Agonist activity, two-electrode voltage clamp in Xenopus oocytes (Example 5)
T5 construct: expressed in transfected cells; host or cells: Xenopus laevis oocytes (cDNA injection)
Procedure: as §1, §2, §3, §8
as §5, with “Experimental Procedures: Injections” for “Injections”, “alpha4beta2, alpha4alpha6beta2,” for “alpha4beta2,”, “oocytes” for “oocytes were performed”, “injection device. Cellular” for “injection and”, “expression was” for “expression”
as §6, with “developed. Oocytes expressing a nAChR subtype were exposed to a brief test pulse of acetylcholine (1280 micromolar) while the holding current and response was evaluated. Cells displaying robust currents were washed for 90 seconds.” for “developed.”, “were then” for “were”, “nAChR” for “compound”, “intervals. The nAChR agonist test concentrations were 0.1, 0.3, 1, 3, 10, 30, 100, 300 (micromolar).” for “intervals.”

T5 sequence (P43681 29-627 limits assumed): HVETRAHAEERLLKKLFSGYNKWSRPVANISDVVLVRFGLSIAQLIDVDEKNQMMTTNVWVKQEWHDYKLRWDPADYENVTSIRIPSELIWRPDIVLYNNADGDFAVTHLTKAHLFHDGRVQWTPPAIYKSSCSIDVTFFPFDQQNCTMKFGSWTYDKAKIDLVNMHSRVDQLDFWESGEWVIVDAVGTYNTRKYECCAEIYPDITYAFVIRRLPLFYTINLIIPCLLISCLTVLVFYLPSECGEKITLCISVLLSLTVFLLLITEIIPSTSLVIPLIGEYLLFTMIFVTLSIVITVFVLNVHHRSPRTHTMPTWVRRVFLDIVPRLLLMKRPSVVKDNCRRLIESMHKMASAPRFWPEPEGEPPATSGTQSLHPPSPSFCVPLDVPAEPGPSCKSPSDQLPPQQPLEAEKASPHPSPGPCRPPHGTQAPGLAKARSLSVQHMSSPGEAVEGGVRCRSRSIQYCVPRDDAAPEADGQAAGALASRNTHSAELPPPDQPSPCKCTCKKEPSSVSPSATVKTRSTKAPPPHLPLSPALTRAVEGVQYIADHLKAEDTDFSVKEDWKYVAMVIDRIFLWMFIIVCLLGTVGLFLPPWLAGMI
T5 sequence (Q15825 26-494): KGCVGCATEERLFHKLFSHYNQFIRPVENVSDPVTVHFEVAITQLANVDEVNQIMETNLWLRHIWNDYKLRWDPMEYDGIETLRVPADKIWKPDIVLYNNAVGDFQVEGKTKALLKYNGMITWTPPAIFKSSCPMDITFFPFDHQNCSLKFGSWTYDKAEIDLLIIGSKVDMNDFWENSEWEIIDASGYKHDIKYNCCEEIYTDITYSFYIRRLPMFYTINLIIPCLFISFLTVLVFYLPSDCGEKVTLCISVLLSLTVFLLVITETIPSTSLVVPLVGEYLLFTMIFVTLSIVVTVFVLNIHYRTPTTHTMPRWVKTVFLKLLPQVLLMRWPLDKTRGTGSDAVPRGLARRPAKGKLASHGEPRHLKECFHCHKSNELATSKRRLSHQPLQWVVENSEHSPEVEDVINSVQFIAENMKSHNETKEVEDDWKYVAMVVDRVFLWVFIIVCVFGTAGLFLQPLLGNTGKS
T5 sequence (P17787 26-502): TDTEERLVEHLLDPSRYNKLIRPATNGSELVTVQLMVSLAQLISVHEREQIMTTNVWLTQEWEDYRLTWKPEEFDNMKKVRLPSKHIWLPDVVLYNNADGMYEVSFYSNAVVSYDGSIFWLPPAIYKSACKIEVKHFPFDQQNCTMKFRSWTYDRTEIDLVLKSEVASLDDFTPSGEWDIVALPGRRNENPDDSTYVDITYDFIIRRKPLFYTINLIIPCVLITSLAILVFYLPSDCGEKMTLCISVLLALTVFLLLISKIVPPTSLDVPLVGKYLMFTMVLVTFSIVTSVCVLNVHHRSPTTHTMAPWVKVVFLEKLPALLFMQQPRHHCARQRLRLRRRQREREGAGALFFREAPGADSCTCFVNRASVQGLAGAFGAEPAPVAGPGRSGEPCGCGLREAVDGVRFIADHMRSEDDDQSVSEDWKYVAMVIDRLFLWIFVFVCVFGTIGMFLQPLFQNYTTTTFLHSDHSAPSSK
T3 sequence (P43681 29-627 limits assumed): as the sequence (P43681 29-627 limits assumed) above
T3 sequence (P17787 26-502): as the sequence (P17787 26-502) above
T2 sequence (P32297 32-505): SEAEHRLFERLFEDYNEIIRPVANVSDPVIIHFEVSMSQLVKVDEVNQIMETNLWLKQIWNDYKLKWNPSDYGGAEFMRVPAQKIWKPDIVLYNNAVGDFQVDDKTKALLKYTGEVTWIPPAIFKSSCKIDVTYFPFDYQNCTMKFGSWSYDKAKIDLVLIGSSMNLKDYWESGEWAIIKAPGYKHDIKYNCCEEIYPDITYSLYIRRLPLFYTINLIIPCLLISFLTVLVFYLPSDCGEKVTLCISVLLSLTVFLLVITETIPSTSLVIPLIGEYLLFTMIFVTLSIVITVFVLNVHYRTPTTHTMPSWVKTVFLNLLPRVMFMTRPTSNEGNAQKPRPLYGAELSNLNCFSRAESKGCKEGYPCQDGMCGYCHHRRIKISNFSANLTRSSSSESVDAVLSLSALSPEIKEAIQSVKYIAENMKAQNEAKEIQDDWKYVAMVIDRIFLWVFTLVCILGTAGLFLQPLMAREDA
T2 sequence (P30926 22-498): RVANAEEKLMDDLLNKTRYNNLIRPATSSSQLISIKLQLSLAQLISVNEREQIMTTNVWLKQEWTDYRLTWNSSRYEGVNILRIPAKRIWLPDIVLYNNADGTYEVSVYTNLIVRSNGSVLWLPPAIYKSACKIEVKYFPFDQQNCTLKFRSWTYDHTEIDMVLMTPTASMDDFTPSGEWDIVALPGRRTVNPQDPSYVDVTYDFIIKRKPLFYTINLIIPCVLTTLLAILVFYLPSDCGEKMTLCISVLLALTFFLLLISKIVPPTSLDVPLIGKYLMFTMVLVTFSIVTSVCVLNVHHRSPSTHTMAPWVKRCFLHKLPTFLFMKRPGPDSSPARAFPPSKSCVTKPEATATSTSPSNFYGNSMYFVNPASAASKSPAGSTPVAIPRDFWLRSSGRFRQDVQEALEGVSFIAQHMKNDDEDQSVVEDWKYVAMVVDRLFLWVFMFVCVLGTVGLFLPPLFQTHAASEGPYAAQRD
T1 sequence (P32297 32-505): as the sequence (P32297 32-505) above
T1 sequence (P30532 23-468): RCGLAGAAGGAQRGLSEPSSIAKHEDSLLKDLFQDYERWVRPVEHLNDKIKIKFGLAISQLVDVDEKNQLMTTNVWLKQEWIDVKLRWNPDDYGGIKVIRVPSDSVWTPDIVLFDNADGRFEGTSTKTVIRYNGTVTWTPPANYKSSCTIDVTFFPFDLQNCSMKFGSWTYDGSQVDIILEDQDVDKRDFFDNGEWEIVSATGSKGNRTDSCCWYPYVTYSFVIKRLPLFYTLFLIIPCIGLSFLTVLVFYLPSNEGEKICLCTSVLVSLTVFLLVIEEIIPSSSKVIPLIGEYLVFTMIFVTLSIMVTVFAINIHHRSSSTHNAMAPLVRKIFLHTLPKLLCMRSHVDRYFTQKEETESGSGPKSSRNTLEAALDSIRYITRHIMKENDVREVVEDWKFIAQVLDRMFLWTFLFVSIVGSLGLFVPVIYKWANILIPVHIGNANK
T1 sequence (P30926 22-498): as the sequence (P30926 22-498) above
T4 sequence (P36544 23-502): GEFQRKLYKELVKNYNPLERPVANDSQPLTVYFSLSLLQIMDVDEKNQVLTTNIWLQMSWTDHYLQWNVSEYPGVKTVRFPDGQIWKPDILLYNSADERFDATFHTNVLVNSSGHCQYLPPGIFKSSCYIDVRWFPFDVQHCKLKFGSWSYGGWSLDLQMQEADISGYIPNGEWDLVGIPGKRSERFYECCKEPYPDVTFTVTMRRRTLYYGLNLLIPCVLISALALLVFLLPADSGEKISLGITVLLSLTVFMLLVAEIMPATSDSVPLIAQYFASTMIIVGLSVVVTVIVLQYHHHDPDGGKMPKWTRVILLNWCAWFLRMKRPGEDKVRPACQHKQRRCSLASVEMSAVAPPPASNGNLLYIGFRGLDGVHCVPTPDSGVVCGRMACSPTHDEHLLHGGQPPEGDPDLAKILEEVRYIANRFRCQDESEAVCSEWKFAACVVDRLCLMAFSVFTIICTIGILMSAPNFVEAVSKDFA

`C(=C\[C@H]1CCNC1)/c1cncnc1` [Compound 1, (R)-5-((E)-2-pyrrolidin-3-ylvinyl)pyrimidine] was tested, and the agonist character [1] was “full agonist”, the agonist character (human nAChR alpha3beta4) was “full agonist” and the agonist character (human nAChR alpha4beta2) was “full agonist”. For the same molecule, the agonist character (human nAChR alpha7) was “weak partial agonist” and the agonist character [2] was “full agonist”.
